Experimental data as given in patent US20240368159A1, “HPK1 DEGRADERS, COMPOSITIONS COMPRISING THE HPK1 DEGRADER, AND METHODS OF USING THE SAME” (BIOFRONT LTD, priority 2021, published 2024).
pIC50: −log10 of the molar value.

Key:
[1] = molecular target: T1, HPK1 protein (Homo sapiens, UniProt Q92918); assay: HPK1 enzyme inhibition assay (ADP-Glo); assay type: biochemical; conditions: MBP substrate, ATP, ADP-Glo readout
T1 construct: purchased Signal Chem M23-11G-10
T1 sequence (Q92918 1-346 limits assumed): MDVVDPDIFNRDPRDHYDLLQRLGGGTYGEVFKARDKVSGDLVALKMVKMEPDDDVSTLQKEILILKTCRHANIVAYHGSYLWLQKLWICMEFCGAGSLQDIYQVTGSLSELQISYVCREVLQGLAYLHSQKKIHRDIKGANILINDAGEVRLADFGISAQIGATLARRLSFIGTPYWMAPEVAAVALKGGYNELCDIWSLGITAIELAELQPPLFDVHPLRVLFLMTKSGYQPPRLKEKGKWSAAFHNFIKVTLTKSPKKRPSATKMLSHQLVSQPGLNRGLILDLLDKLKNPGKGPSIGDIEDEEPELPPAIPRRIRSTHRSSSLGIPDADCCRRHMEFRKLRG
Outline: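 Recombinant human HPK1 preincubated with compound 60 min at 25 °C, then reaction with MBP (0.2 ug/ul, 2× stock) and ATP (20 μM, 2× stock) 60 min at 25 °C. ADP formed detected by ADP-Glo after ATP depletion and conversion to ATP; IC50 calculated from signal.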

[2] = test system: HPK1 p-SLP-76; assay: HPK1 p-SLP-76 inhibition assay in human PBMC (HTRF); assay type: cell-based; conditions: 6 h compound, anti-CD3 stimulation 20 min
Outline: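 Human PBMC starved overnight in 0.5% FBS, treated with compound 6 h at 37° C, then stimulated with anti-CD3 (10 ug/mL final) for 20 min. Lysates analysed for phospho-SLP76 by HTRF after overnight detection-antibody incubation at 25° C.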

[3] = molecular target: T2, HPK1 protein (Mus musculus, UniProt P70218); assay: HPK1 protein degradation in mouse pan T cell (western blot); assay type: cell-based; conditions: 18 h incubation
T2 construct: the CD3+ T cell population was isolated from spleenocytes of mice; endogenous in cells; host or cells: primary mouse splenic CD3+ (pan) T cells
T2 sequence (P70218 1-827): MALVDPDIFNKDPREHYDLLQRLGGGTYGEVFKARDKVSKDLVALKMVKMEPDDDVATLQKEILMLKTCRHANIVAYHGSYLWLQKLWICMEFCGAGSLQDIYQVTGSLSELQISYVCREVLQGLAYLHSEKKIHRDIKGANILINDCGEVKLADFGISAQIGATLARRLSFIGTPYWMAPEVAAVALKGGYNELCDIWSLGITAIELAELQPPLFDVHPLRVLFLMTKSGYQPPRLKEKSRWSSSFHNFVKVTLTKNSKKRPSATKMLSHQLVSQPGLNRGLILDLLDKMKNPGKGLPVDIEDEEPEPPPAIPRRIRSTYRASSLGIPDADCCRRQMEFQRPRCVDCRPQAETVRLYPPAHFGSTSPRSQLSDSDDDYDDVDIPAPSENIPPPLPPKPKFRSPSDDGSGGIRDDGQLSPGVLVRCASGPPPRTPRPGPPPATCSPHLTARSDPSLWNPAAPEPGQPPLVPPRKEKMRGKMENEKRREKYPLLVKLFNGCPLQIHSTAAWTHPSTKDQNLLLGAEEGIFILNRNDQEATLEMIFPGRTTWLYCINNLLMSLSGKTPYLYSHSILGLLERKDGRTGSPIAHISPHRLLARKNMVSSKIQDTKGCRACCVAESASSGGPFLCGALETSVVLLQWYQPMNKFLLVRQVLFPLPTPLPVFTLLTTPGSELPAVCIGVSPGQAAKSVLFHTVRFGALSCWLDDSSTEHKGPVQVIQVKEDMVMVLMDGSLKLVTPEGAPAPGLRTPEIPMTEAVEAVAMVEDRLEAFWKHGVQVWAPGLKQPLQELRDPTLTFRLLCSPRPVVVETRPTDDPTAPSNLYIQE
Experimental: (§1) HPK1 protein degradation in mouse pan T cell: the CD3+ T cell population was isolated from spleenocytes of mice by using Pan T cell isolation kit from Miltenyi Biotec (130-095-130) following manufacture's instruction. The isolated T cells were then incubated with a variety of concentrations of compound. After incubation for 18 h, the cells were collected and lysed. The protein concentration was determined by BCA protein assay kit from Thermo (23227). The HPK1 protein level was determined by western blots, using anti-human HPK1 polyclonal antibody from CST (4472). Proteins were loaded into each well of the pre-casting gels and subjected to electrophoretic separation by SDS-PAGE. The protein resolved by SDS-PAGE were transferred to PVDF, blocked by 5% skim milk and probed with anti-human HPK1 antibody or β-actin antibody from CST (3700S), using following standard western blotting procedure.

[4] = molecular target: T3, HPK1 protein (Homo sapiens, UniProt Q92918); assay: HPK1 protein degradation in human PBMC (western blot); assay type: cell-based; conditions: 18 h incubation
T3 construct: Frozen human PBMC were purchased from Shanghai OribioTech; host or cells: human PBMC
Experimental: as §1, with “human PBMC: Frozen human PBMC were purchased” for “mouse pan T cell: the CD3+ T cell population was isolated”, “Shanghai OribioTech and recovered with culture medium (RMPI1640) prior to use.” for “spleenocytes of mice by using Pan T cell isolation kit from Miltenyi Biotec (130-095-130) following manufacture's instruction.”, “The” for “The isolated T”, “(4472S).” for “(4472).”, “milk,” for “milk”, “using” for “using following”
T3 sequence (Q92918 whole entry): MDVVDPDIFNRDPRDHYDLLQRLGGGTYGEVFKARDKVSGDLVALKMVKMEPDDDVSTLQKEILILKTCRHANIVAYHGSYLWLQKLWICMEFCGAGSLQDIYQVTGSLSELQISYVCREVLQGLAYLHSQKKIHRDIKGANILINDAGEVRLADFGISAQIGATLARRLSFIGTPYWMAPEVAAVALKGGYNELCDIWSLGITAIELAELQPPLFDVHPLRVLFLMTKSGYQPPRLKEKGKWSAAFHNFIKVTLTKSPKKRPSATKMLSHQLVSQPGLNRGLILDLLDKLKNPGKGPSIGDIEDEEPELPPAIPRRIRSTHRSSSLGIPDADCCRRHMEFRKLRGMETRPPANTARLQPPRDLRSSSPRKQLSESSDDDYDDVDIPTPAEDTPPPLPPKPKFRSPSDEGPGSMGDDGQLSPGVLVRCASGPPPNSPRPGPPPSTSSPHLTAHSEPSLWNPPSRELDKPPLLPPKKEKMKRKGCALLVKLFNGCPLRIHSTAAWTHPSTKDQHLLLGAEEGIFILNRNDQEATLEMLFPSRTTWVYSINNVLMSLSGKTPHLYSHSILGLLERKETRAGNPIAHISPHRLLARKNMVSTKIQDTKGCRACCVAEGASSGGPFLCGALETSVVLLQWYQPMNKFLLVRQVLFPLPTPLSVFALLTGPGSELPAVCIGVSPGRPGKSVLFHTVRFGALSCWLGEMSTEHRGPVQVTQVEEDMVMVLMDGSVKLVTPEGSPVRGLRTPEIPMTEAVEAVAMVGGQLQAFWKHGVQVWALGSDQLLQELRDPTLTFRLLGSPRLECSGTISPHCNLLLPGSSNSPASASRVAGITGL

Structure (SMILES) | pIC50 [1] | pIC50 [2] | Dmax [3] [%] | Dmax [4] [%]
CCc1c[nH]c2ncc(-c3cccc(N4CCN(C(=O)COC5CCN(c6ccc7c(c6)C(=O)N(C6CCC(=O)NC6=O)C7=O)CC5)CC4=O)c3)c(Cl)c12 (centres unmarked) [Example 16, 5-(4-(2-(4-(3-(4-chloro-3-ethyl-1H-pyrrolo[2,3-b]pyridin-5-yl)phenyl)-3-oxopiperazin-1-yl)-2-oxoethoxy)piperidin-1-yl)-2-(2,6-dioxopiperidin-3-yl)isoindoline-1,3-dione] | ≥ 8.00 | ≥ 6.52 | 80 | 96
CCc1c[nH]c2ncc(-c3cccc(N4CCN(CCCN5CCN(c6cc7c(cc6F)C(=O)N(C6CCC(=O)NC6=O)C7=O)CC5)CC4=O)c3)c(Cl)c12 (centres unmarked) [Example 25] | 7.00 to 8.00 | 5.52 to 6.52 | 96 | 96
CCc1c[nH]c2ncc(-c3cccc(N4CCN(CCN5CCN(c6ccc7c(c6)C(=O)N(C6CCC(=O)NC6=O)C7=O)CC5)CC4=O)c3)c(Cl)c12 (centres unmarked) [Example 28, 5-(4-(2-(4-(3-(4-chloro-3-ethyl-1H-pyrrolo[2,3-b]pyridin-5-yl)phenyl)-3-oxopiperazin-1-yl)ethyl)piperazin-1-yl)-2-(2,6-dioxopiperidin-3-yl)isoindoline-1,3-dione] | 7.00 to 8.00 | 5.52 to 6.52 |  | 80
CCc1c[nH]c2ncc(-c3cc(N4CCN(C(=O)CN(C)C5CCN(c6cc7c(cc6F)C(=O)N(C6CCC(=O)NC6=O)C7=O)CC5)CC4=O)ccc3F)c(Cl)c12 (centres unmarked) [Example 44] | 7.00 to 8.00 |  | 50 | 30
O=C1CCC(N2C(=O)c3cc(F)c(N4CCC(CCN5CCN(c6cccc(-c7cnc8[nH]cc(C9CC9)c8c7Cl)c6)C(=O)C5)CC4)cc3C2=O)C(=O)N1 (centres unmarked) [Example 45] | 7.00 to 8.00 |  | 90 | 78
O=C1CCC(N2Cc3ccc(N4CCC(OCC(=O)N5CCN(c6cccc(-c7cnc8[nH]cc(C9CC9)c8c7Cl)c6)C(=O)C5)CC4)cc3C2=O)C(=O)N1 (centres unmarked) [Example 46] | ≥ 8.00 |  | 90 | 51
O=C1CCC(N2Cc3cc(N4CCC(OCC(=O)N5CCN(c6cccc(-c7cnc8[nH]cc(C9CC9)c8c7Cl)c6)C(=O)C5)CC4)ccc3C2=O)C(=O)N1 (centres unmarked) [Example 47] | ≥ 8.00 |  | 95 | 85
CC(OC1CCN(c2cc3c(cc2F)C(=O)N(C2CCC(=O)NC2=O)C3=O)CC1)C(=O)N1CCN(c2cccc(-c3cnc4[nH]cc(C5CC5)c4c3Cl)c2)C(=O)C1 (centres unmarked) [Example 48] | 7.00 to 8.00 |  | 95 | 57
O=C1CCC(N2C(=O)c3cc(F)c(N4CCN(C5CC(CN6CCN(c7cccc(-c8cnc9[nH]cc(C%10CC%10)c9c8Cl)c7)C(=O)C6)C5)CC4)cc3C2=O)C(=O)N1 (centres unmarked) [Example 51, 5-(4-(3-((4-(3-(4-chloro-3-cyclopropyl-1H-pyrrolo[2,3-b]pyridin-5-yl)phenyl)-3-oxopiperazin-1-yl)methyl)cyclobutyl)piperazin-1-yl)-2-(2,6-dioxopiperidin-3-yl)-6-fluoroisoindoline-1,3-dione] | 7.00 to 8.00 |  | 95 | 96
O=C1CCC(N2C(=O)c3cc(F)c(N4CCC5(CC4)CN(CCN4CCN(c6cccc(-c7cnc8[nH]cc(C9CC9)c8c7Cl)c6)C(=O)C4)C5)cc3C2=O)C(=O)N1 (centres unmarked) [Example 52] | 7.00 to 8.00 |  | 95 | 31
O=C1CCC(N2C(=O)c3cc(F)c(N4CCN(CCCN5CCN(c6cccc(-c7cnc8[nH]cc(C9CC9)c8c7Cl)n6)C(=O)C5)CC4)cc3C2=O)C(=O)N1 (centres unmarked) [Example 53, 5-(4-(3-(4-(6-(4-chloro-3-cyclopropyl-1H-pyrrolo[2,3-b]pyridin-5-yl)pyridin-2-yl)-3-oxopiperazin-1-yl)propyl)piperazin-1-yl)-2-(2,6-dioxopiperidin-3-yl)-6-fluoroisoindoline-1,3-dione] | 7.00 to 8.00 |  | 95 | 86
O=C1CCC(N2C(=O)c3cc(F)c(N4CCC(CCN5CCN(c6cccc(-c7cnc8[nH]cc(CC(F)F)c8c7Cl)c6)C(=O)C5)CC4)cc3C2=O)C(=O)N1 (centres unmarked) [Example 55] | 6.00 to 7.00 |  | 95 | 55
O=C1CCN(c2cccc3cc(N4CCN(CCCN5CCN(c6cccc(-c7cnc8[nH]cc(C9CC9)c8c7Cl)n6)C(=O)C5)CC4)ccc23)C(=O)N1 [Example 69, 1-(6-(4-(3-(4-(6-(4-chloro-3-cyclopropyl-1H-pyrrolo[2,3-b]pyridin-5-yl)pyridin-2-yl)-3-oxopiperazin-1-yl)propyl)piperazin-1-yl)naphthalen-1-yl)dihydropyrimidine-2,4 (1H,3H)-dione] | ≥ 8.00 | 5.52 to 6.52 |  | 74
O=C1CCN(c2cccc3cc(N4CCC(OCCN5CCN(c6cccc(-c7cnc8[nH]cc(C9CC9)c8c7Cl)n6)C(=O)C5)CC4)ccc23)C(=O)N1 [Example 72] | 7.00 to 8.00 | 5.52 to 6.52 |  | 30
CCc1c[nH]c2ncc(-c3cccc(N4CCN(CCCN5CC=C(c6ccc7c(N8CCC(=O)NC8=O)nn(C)c7c6)CC5)CC4=O)c3)c(Cl)c12 [Example 74, 1-(6-(1-(3-(4-(3-(4-chloro-3-ethyl-1H-pyrrolo[2,3-b]pyridin-5-yl)phenyl)-3-oxopiperazin-1-yl)propyl)-1,2,3,6-tetrahydropyridin-4-yl)-1-methyl-1H-indazol-3-yl)dihydropyrimidine-2,4 (1H,3H)-dione] | ≥ 8.00 |  | 91 | 86
CCc1c[nH]c2ncc(-c3cccc(N4CCN(CCCN5CCN(c6ccc7c(N8CCC(=O)NC8=O)cccc7c6)CC5)CC4=O)c3)c(Cl)c12 [Example 76, 1-(6-(4-(3-(4-(3-(4-chloro-3-ethyl-1H-pyrrolo[2,3-b]pyridin-5-yl)phenyl)-3-oxopiperazin-1-yl)propyl)piperazin-1-yl)naphthalen-1-yl)dihydropyrimidine-2,4 (1H,3H)-dione] | 7.00 to 8.00 |  | 95 | 74
CCc1c[nH]c2ncc(-c3cccc(N4CCN(S(=O)(=O)CCN5CCN(c6ccc7c(c6)C(=O)N(C6CCC(=O)NC6=O)C7=O)CC5)CC4=O)c3)c(Cl)c12 (centres unmarked) [Example 100] | 7.00 to 8.00 |  | 90 | 93
